According to the supplement of paper PMC11451515:

Test system: SEM cells
Experiment: cell viability relative to DMSO control; higher = less cytotoxic
Conditions: 48 h
Outline: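 Viability is expressed as a percentage of DMSO wells within each plate, and cell-free wells serve as background. Seeding densities in the 1536-well plates (5 μl) were 500 cells/well for NOMO1 or SEM leukemia cells and 1000 cells/well for P12-Ichikawa. Each line was adapted for at least four passages in each medium. Library compounds in DMSO were pin-dosed at 47 μM to 0.79 nM (11 points, threefold), and CellTiter-Glo One luminescence was read after 48 h at 37°C.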

[1] = HPLM + 10% dialyzed FBS, 0.000781 µM
[2] = HPLM + 10% dialyzed FBS, 0.00234 µM
[3] = HPLM + 10% dialyzed FBS, 0.00702 µM
[4] = HPLM + 10% dialyzed FBS, 0.0211 µM
[5] = HPLM + 10% dialyzed FBS, 0.0632 µM
[6] = HPLM + 10% dialyzed FBS, 0.19 µM
[7] = HPLM + 10% dialyzed FBS, 0.569 µM
[8] = HPLM + 10% dialyzed FBS, 1.71 µM
[9] = HPLM + 10% dialyzed FBS, 5.12 µM
[10] = HPLM + 10% dialyzed FBS, 15.4 µM
[11] = HPLM + 10% dialyzed FBS, 46.1 µM
[12] = RPMI 5 mM glucose + 10% FBS, 0.000781 µM
[13] = RPMI 5 mM glucose + 10% FBS, 0.00234 µM
[14] = RPMI 5 mM glucose + 10% FBS, 0.00702 µM
[15] = RPMI 5 mM glucose + 10% FBS, 0.0211 µM
[16] = RPMI 5 mM glucose + 10% FBS, 0.0632 µM
[17] = RPMI 5 mM glucose + 10% FBS, 0.19 µM
[18] = RPMI 5 mM glucose + 10% FBS, 0.569 µM
[19] = RPMI 5 mM glucose + 10% FBS, 1.71 µM
[20] = RPMI 5 mM glucose + 10% FBS, 5.12 µM
[21] = RPMI 5 mM glucose + 10% FBS, 15.4 µM
[22] = RPMI 5 mM glucose + 10% FBS, 46.1 µM
[23] = RPMI 5 mM glucose + 10% dialyzed FBS, 0.000781 µM
[24] = RPMI 5 mM glucose + 10% dialyzed FBS, 0.00234 µM
[25] = RPMI 5 mM glucose + 10% dialyzed FBS, 0.00702 µM
[26] = RPMI 5 mM glucose + 10% dialyzed FBS, 0.0211 µM
[27] = RPMI 5 mM glucose + 10% dialyzed FBS, 0.0632 µM
[28] = RPMI 5 mM glucose + 10% dialyzed FBS, 0.19 µM
[29] = RPMI 5 mM glucose + 10% dialyzed FBS, 0.569 µM
[30] = RPMI 5 mM glucose + 10% dialyzed FBS, 1.71 µM
[31] = RPMI 5 mM glucose + 10% dialyzed FBS, 5.12 µM
[32] = RPMI 5 mM glucose + 10% dialyzed FBS, 15.4 µM
[33] = RPMI 5 mM glucose + 10% dialyzed FBS, 46.1 µM

SMILES	cell viability [1] [%]	cell viability [2] [%]	cell viability [3] [%]	cell viability [4] [%]	cell viability [5] [%]	cell viability [6] [%]	cell viability [7] [%]	cell viability [8] [%]	cell viability [9] [%]	cell viability [10] [%]	cell viability [11] [%]	cell viability [12] [%]	cell viability [13] [%]	cell viability [14] [%]	cell viability [15] [%]	cell viability [16] [%]	cell viability [17] [%]	cell viability [18] [%]	cell viability [19] [%]	cell viability [20] [%]	cell viability [21] [%]	cell viability [22] [%]	cell viability [23] [%]	cell viability [24] [%]	cell viability [25] [%]	cell viability [26] [%]	cell viability [27] [%]	cell viability [28] [%]	cell viability [29] [%]	cell viability [30] [%]	cell viability [31] [%]	cell viability [32] [%]	cell viability [33] [%]
O=C(C[C@@H]1C/C=C\CCC(=O)O[C@H](c2ccccc2)CNC1=O)NCc1ccc(Cl)cc1	77	109	46.9	111	109	118	128	107	107	112	118	85.7	102	11.1	88.8	95.7	96.3	101	102	98.9	90.9	94	83.6	106	34.3	121	116	128	122	104	107	103	102
Cn1c(=O)c2[nH]cnc2n(C)c1=O	102	112	107	109	108	110	98.6	117	105	110	102	104	107	110	98.1	98.2	103	99.7	94.8	110	99	97.2	98.8	126	102	115	124	113	106	114	105	124	104
OC1=CC2=C(C(=O)\C=C(/O2)C3=CC=CC=C3)C(=C1O)O	105	116	106	103	111	109	104	93.3	77.5	25.6	23.8												108	94.4	102	94.5	104	99.5	106	102	69.5	16.7	14.6
COc1ccc2c(OCc3nnc4ccc(-c5ccccc5)nn34)ccnc2c1	106	101	101	107	120	92.9	107	102	97.4	75.9	15.6	68.7	63.1	71.5	82.1	84	78.6	105	78.2	60.8	25.6	1.49	94	96.8	90.5	111	115	102	95.3	91.1	81	63.1	3.65
CCCOc1ccc2[nH]c(NC(=O)OC)nc2c1	106	99.4	97.6	82.9	42.1	25.4	23	25.8	25.7	24.6	23	95.3	78.3	70	60	23.6	14.1	13.2	9.52	11.6	12.1	15.1	120	123	94.4	80.2	45.2	20.1	22.5	15.3	17.5	20.8	18.7
Nc1nc(Nc2ccc([S+](N)(=O)[O-])cc2)nn1C(=O)c1c(F)cccc1F	104	111	97.8	133	104	113	123	116	64.1	32.1	5.68	100	107	113	110	114	101	100	109	76.5	34.7	6.53	88.9	108	114	115	110	122	111	123	64.8	34.5	4.33
C[N]1N=CC2=C1C=C(C(=C2)OC3=CC=C(NC(=O)\C4=C\C=C(\C)N(C4=O)C5=CC=C(F)C=C5)C=C3F)C6=C[NH]N=C6	98.7	93.2	94.4	94.5	62.3	54	48.3	43	11.1	6.77	7.19	91.5	100	96.6	84.3	54.7	56.1	59.1	38.9	9.63	8.07	8.6	98.5	105	97.8	89.4	54.5	52.1	50.8	43.7	11.4	7.29	7.53
O=C(NCCO[N+](=O)[O-])c1cccnc1	99.3	64.4	107	114	105	97.1	101	98.7	108	105	115	100	92.8	112	111	112	114	96.1	102	112	121	108	107	89.6	112	109	97.6	111	96.6	105	110	111	110
C=C[C@H]1CN2CCC1C[C@@H]2[C@@H](O)c1ccnc2ccccc12 (some centres undefined)	95.4	95.7	103	112	98.5	96.1	91	93.6	85.2	89.1	72.1	92	105	93.2	106	108	104	100	92.9	73.5	78.1	51.1	106	100	90	106	102	103	110	94.1	87.3	86.6	64.1
CC(=O)OCC(=O)[C@@]12OC(C)(C)O[C@@H]1C[C@H]3[C@@H]4C[C@H](F)C/5=C/C(=O)/C=C\[C@]5(C)[C@@]4(F)[C@@H](O)C[C@]23C	67.2	84.1	74.8	70.2	79.9	78.5	21.4	20.6	74.8	89.7	67.8	103	104	85.4	94.7	106	99.4	24.7	21.1	78.5	78.2	76.3	92.5	102	87.9	85.2	90	68.9	15.7	10.2	106	95.4	75.4
CCOC(CN1C(=O)[C@](CC(=O)Nc2ccc(C)cc2)(NC(=O)Nc2ccc(C)cc2)c2ccccc21)OCC	117	101	105	120	105	116	114	102	86.6	99.6	73.5	99	98.8	113	108	99.4	108	119	87.7	75.9	77.3	79.9	109	115	100	113	122	113	110	98.4	102	105	66.5
O=[N+]([O-])c1ccc(Nc2ccccc2-c2ccccc2)c2nonc12	71.9	79.4	90.5	84.4	63.4	62	68.8	62.8	78.1	48.7	26.4	93.5	91.7	100	102	77.6	52.2	83.8	48.9	61.6	32.2	27	72.6	70.5	80.5	90.9	58.8	62.8	64.8	30.9	54.4	42.3	26.1
C/C(=C\c1csc(C)n1)[C@@H]1C[C@@H]2O[C@@H]2CCC[C@H](C)[C@H](O)[C@@H](C)C(=O)C(C)(C)[C@@H](O)CC(=O)O1	26.5	21.4	22.1	22.7	19.9	20.3	23.7	21.5	19.1	20.8	20.7	14.8	18.4	16.2	16	16.4	16.4	16.2	13.4	16.1	16.3	13.4	32.1	17.1	19.3	16.8	15.6	17.7	19.6	15.2	18.7	21.8	19.2
Cn1cc(-c2cnn3c(N)c(Br)c([C@@H]4CCCNC4)nc23)cn1	75.1	93.2	94.8	86.4	93.6	93.6	71.3	29.1	19.4	16.7	8.44	87.4	99.9	101	94.4	91.8	93.6	96.6	63	22.4	16.3	7.88	76.8	90.9	84.6	88.9	83.6	94.2	69.5	31.3	13.2	12.8	7.35
CN1CC/C(CC1)=C3\c4ccccc4CC(=O)c2sccc23	107	110	127	121	119	122	127	133	142	123	110	115	124	123	114	127	125	126	116	145	129	103	117	114	126	104	119	129	135	108	128	106	113
